Patent publication US11919918B2, “P2X3 andor P2X2/3 receptor antagonist, pharmaceutical composition comprising same, and use thereof” (BEIJING TIDE PHARMACEUTICAL CO., LTD., priority 2017, dated 2024)

Columns and labels:
human P2X3 receptor = human P2X3 receptor (Homo sapiens (Human), UniProt P56373); test: Inhibitory activity on human P2X3 receptor (calcium 6 dye FLIPR assay, agonist α,β-MeATP); format: cell-based; settings: HEK293-P2X3 stably expressing cell line, FLIPR Tetra
Description: (§1) Biological Assay: Determination of the Inhibitory Activity of the Compounds on Human P2X3 and P2X2/3 Receptors
(§2) Cells were seeded into a poly-D-lysine-coated 384-well cell culture plate (Corning) at a density of 11,000 cells/well/25 μL of cell inoculation medium, and were cultured in a cell incubator overnight. On the day of the test, the calcium 6 dye was diluted to a 2× concentration with a assay buffer, 25 μL of the 2× calcium 6 dye was added to the 384-well cell culture plate, which was incubated at 37° C. for 2 hours, and then placed at room temperature for further use. The test compound and the agonist, α,β-MeATP were diluted to a 7× concentration with the assay buffer, 10 μL of the 7× test compound was added to the 384-well cell culture plate, which was incubated at room temperature for 15 minutes, and 10 μL of the 7× α,β-MeATP was transferred into the 384-well cell culture plate. The data were measured and analyzed using FLIPR Tetra, and the half inhibitory concentration (IC50) of the test compound on P2X3 and P2X2/3 receptors was calculated with the GraphPad Prism four-parameter equation.
(§3) Cell lines: human embryonic kidney cells HEK293-P2X3 and HEK293-P2X2/3 stably expressing cell lines;
(§4) Complete cell culture medium: DMEM High Glucose (Life Technology), which contained 10% fetal bovine serum, 4 mM GlutaMAX, 1% penicillin-streptomycin, and 350 μg/mL G418;
(§5) Cell inoculation medium: DMEM High Glucose (Life Technology), which contained 2% fetal bovine serum, and 4 mM GlutaMAX;
(§6) Cell culture conditions: 37° C., 5% CO2;
(§7) Assay buffer: HBSS (containing calcium and magnesium ions), which contained 20 mM HEPES;
(§8) Detection equipment: FLIPR Tetra (Molecular Devices);

human P2X2/3 receptor = human P2X2/3 receptor (Homo sapiens (Human), UniProt P56373+Q9UBL9); test: Inhibitory activity on human P2X2/3 receptor (calcium 6 dye FLIPR assay, agonist α,β-MeATP); format: cell-based; settings: HEK293-P2X2/3 stably expressing cell line, FLIPR Tetra
Sequence of human P2X2/3 receptor (Q9UBL9 whole entry): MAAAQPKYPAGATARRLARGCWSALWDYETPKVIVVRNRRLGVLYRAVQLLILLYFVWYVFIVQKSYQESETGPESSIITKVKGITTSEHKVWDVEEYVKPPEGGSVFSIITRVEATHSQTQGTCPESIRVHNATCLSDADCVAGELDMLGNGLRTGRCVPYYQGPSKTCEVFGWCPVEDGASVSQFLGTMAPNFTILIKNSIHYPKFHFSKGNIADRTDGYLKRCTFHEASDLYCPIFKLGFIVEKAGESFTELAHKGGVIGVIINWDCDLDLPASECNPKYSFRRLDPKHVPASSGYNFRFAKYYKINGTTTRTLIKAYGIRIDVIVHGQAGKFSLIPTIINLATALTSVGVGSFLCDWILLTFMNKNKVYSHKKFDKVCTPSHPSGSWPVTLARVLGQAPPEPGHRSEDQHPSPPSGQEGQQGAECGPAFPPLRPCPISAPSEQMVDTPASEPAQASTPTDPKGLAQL
Sequence of human P2X2/3 receptor (P56373 whole entry): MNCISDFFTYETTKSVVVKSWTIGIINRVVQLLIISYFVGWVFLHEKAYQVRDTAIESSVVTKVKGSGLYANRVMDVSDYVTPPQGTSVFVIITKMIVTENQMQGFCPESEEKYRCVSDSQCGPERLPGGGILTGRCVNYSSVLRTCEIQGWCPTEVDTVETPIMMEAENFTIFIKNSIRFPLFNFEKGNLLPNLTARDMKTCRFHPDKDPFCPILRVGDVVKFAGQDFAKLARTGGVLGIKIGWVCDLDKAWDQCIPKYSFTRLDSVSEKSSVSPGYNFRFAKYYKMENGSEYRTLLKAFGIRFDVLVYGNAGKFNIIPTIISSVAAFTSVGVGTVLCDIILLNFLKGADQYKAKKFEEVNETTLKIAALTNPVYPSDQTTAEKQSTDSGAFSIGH
Description: as §1, §2, §3, §4, §5, §6, §7, §8

Sequence of human P2X3 receptor (P56373 whole entry): as above

SMILES | IC50 (human P2X3 receptor) [nM] | IC50 (human P2X2/3 receptor) [nM]
CC(C)c1cnc(Cl)cc1Sc1cnc(N)nc1N [C84] | 536 | 742
CC(C)c1cnc(N)cc1Oc1cnc(N)nc1N [Compound C21, 5-((2-amino-5-isopropylpyridin-4-yl)oxy)pyrimidine-2,4-diamine] | 131 | 200
CC(C)c1cnc(N(C)C)cc1Oc1cnc(N)nc1N [Compound C23, 5-((2-(dimethylamino)-5-isopropylpyridin-4-yl)oxy)pyrimidine-2,4-diamine] | 365 | 644
CC(C)c1cnc([Si](C)(C)C)cc1Oc1cnc(N)nc1N [Compound C133, 5-((5-isopropyl-2-(trimethylsilyl)pyridin-4-yl)oxy)pyrimidine-2,4-diamine] | 1440 | 770
C#Cc1cc(Sc2cnc(N)nc2N)c(C(C)C)cn1 [Compound C88, 5-((2-ethynyl-5-isopropyl-pyrdin-4-yl)thio) pyrimidine-2,4-diamine] | 133 | 122
C=Cc1cc(Oc2cnc(N)nc2N)c(C(C)C)cn1 [Compound C43] | 55 | 180
CSc1cc(Oc2cnc(N)nc2NCCN(C)C)c(C(C)C)cn1 [Compound C72, N^4-(2-(dimethylamino)ethyl)-5-((5-isopropyl-2-(methylthio)pyridin-4-yl)oxy)pyrimidine-2,4-diamine] | 127 | 89
CSc1cc(Oc2cnc(N)nc2N)c(C(C)C)cn1 [Compound C20, 5-((5-isopropyl-2-(methylthio)pyridin-4-yl)oxy)pyrimidine-2,4-diamine] | 44.4 | 75.7
CC(C)c1cnc(C#Cc2cccc3cccnc23)cc1Oc1cnc(N)nc1N [Compound C149, 5-((5-isopropyl-2-(quinolin-8-ylethynyl)pyridin-4-yl)oxy)pyrimidine-2,4-diamine] | 130 | 266
C=C(C)c1cnc(NC)cc1Oc1cnc(N)nc1N [C192] | 53 | 69
CCc1cc(Oc2cnc(N)nc2N)c(C(C)C)cn1 [Compound C15, 5-((2-ethyl-5-isopropylpyridin-4-yl)oxy)pyrimidine-2,4-diamine] | 307 | 793
CNc1cc(Oc2cnc(N)nc2N)c(C(C)C)cn1 [Compound C22, 5-((5-isopropyl-2-(methylamino)pyridin-4-yl)oxy)pyrimidine-2,4-diamine] | 37 | 57
COc1cc(Oc2cnc(N)nc2N)c(C(C)C)cn1 [Compound C4, 5-((5-isopropyl-2-methoxypyridin-4-yl)oxy)pyrimidine-2,4-diamine] | 102 | 158
COc1cc(Oc2cnc(N)nc2N)c(C2CC2)cn1 [Compound C33, 5-((5-cyclopropyl-2-methoxypyridin-4-yl)oxy) pyrimidine-2,4-diamine] | 238 | 262
C=Cc1cc(Sc2cnc(N)nc2N)c(C(C)C)cn1 [Compound C95, 5-((5-isopropyl-2-vinylpyridine-4-yl)thio)pyrimidine-2,4-diamine] | 138 | 163
CC(C)c1cnc(Br)cc1Oc1cnc(NC(CO)CO)nc1N [Compound C111, 2-((4-amino-5-((2-bromo-5-isopropyl-pyridin-4-yl)oxy)pyrimidin-2-yl)amino) propane-1,3-diol] | 104 | 129
CCN(C)c1cc(Oc2cnc(N)nc2N)c(C(C)C)cn1 [Compound C61, 5-((2-(ethyl(methyl)amino)-5-isopropylpyridin-4-yl)oxy)pyrimidine-2,4-diamine] | 274 | 592
CC(C)c1cnc(Cl)cc1Oc1cnc(N)nc1N [Compound C3, 5-((2-chloro-5-isopropylpyridin-4-yl)oxy)pyrimidine-2,4-diamine] | 205 | 341
CCNc1cc(Oc2cnc(N)nc2N)c(C(C)C)cn1 [Compound C118, 5-((2-(ethylamino)-5-isopropylpyridin-4-yl)oxy) pyrimidine-2,4-diamine] | 142 | 366
CC(C)c1cnc(C2CC2)cc1Oc1cnc(N)nc1N [Compound C52, 5-((2-cyclopropyl-5-isopropylpyridin-4-yl)oxy)pyrimidine-2,4-diamine] | 147 | 589

Further lines, results first:

IC50 (human P2X3 receptor) [nM] | IC50 (human P2X2/3 receptor) [nM] | SMILES
88 | 134 | CC(C)c1cnc(Br)cc1Oc1cnc(NCCO)nc1N [Compound C236, 2-((4-amino-5-((2-bromo-5-isopropyl-pyridin-4-yl)oxy)pyrimidin-2-yl)amino)ethanol]
62 | 65 | C#Cc1cc(Oc2cnc(N)nc2NCC(O)CO)c(C(C)C)cn1 (stereo not shown) [Compound C216, 3-((2-amino-5-((2-ethynyl-5-isopropylpyridin-4-yl)oxy)pyrimidin-4-yl)amino)propane-1,2-diol]
65 | 113 | C#Cc1cc(Oc2cnc(NCC(O)CO)nc2N)c(C(C)C)cn1 (stereo not shown) [Compound C229, 3-((4-amino-5-((2-ethynyl-5-isopropyl-pyridin-4-yl)oxy)pyrimidin-2-yl)amino) propane-l,2-diol]
100 | 145 | CC(C)Nc1nc(N)ncc1Oc1cc(Br)ncc1C(C)C [Compound C174, 5-((2-bromo-5-isopropylpyridin-4-yl)oxy)-N^4-isopropyl-pyrimidine-2,4-diamine]
107 | 131 | CC(C)Nc1ncc(Oc2cc(Br)ncc2C(C)C)c(N)n1 [Compound C239, 5-((2-bromo-5-isopropylpyridin-4-yl)oxy)-N^2-isopropyl-pyrimidine-2,4-diamine]
144 | 209 | CC[C@@H](CO)Nc1nc(N)ncc1Oc1cc(Br)ncc1C(C)C [Compound C209, (S)-2-((2-amino-5-((2-bromo-5-isopropylpyridin-4-yl)oxy)pyrimidin-4-yl)amino)but-1-ol]
211 | 375 | CC(C)c1cnc(NCC(F)(F)F)cc1Oc1cnc(N)nc1N [Compound C152]
103 | 166 | CNCCNc1nc(N)ncc1Oc1cc(Br)ncc1C(C)C [Compound C202, 5-((2-bromo-5-isopropylpyridin-4-yl)oxy)-N^4-(2-(methylamino)ethyl)pyrimidine-2,4-diamine]
81 | 123 | C#Cc1cc(Oc2cnc(N)nc2NC(C)C)c(C(C)C)cn1 [Compound C212, 5-((2-ethynyl-5-isopropylpyridin-4-yl)oxy)-N^4-isopropylpyrimidine-2,4-diamine]
90 | 145 | CC(C)c1cnc(Br)cc1Oc1cnc(NCC(O)CO)nc1N (stereo not shown) [Compound C235, 3-((4-amino-5-((2-bromo-5-isopropyl-pyridin-4-yl)oxy)pyrimidin-2-yl)amino) propane-1,2-diol]
60 | 106 | C#Cc1cc(Oc2cnc(NCCO)nc2N)c(C(C)C)cn1 [Compound C230, 2-((4-amino-5-((2-ethynyl-5-isopropyl-pyridin-4-yl)oxy)pyrimidin-2-yl)amino) ethanol]
116 | 209 | CNc1nc(N)ncc1Oc1cc(Br)ncc1C(C)C [Compound C172, 5-((2-bromo-5-isopropylpyridin-4-yl)oxy)-N^4-methyl-pyrimidine-2,4-diamine]
88.2 | 194 | C#Cc1cc(Oc2cnc(N)nc2N)c(C(=C)C)cn1 [Compound C215, 5-((2-ethynyl-5-(prop-1-en-2-yl)pyridin-4-yl)oxy) pyrimidine-2,4-diamine]
611 | 984 | COc1cc(Oc2cnc(N)nc2N)c(C)cn1 [Compound C176, 5-((2-methoxy-5-methylpyridin-4-yl)oxy) pyrimidine-2,4-diamine]
590 | 961 | CC(C)c1cnc(C#Cc2ccncc2)cc1Oc1cnc(N)nc1N [Compound C151, 5-((5-isopropyl-2-(pyridin-4-ylethynyl)pyridin-4-yl)oxy)pyrimidine-2,4-diamine]
119 | 125 | C#Cc1cc(Oc2cnc(NC(CO)CO)nc2N)c(C(C)C)cn1 [Compound C228, 2-((4-amino-5-((2-ethynyl-5-isopropyl-pyrdin-4-yl)oxy)pyrimidin-2-yl)amino) propane-1,3-diol]
269 | 399 | CC(C)c1cnc(Br)cc1Oc1cnc(N)nc1NCCN1CCCC1 [Compound C210, 5-((2-bromo-5-isopropylpyridin-4-yl)oxy)-N^4-(2-(pyrrolidin-1-yl)ethyl) pyrimidine-2,4-diamine]
112 | 295 | C#Cc1cc(Oc2cnc(N)nc2NC)c(C(C)C)cn1 [Compound C213, 5-((2-ethynyl-5-isopropylpyridin-4-yl)oxy)-N^4-methylpyrimidine-2,4-diamine]
